Experimental findings from US11116722B2, “Antifungal dry powders” (priority 2016, dated 2021) are described below.

In the series the test system is Calu-3 cell line.

Molecules are shown by their SMILES.

Method: A bio-relevant dissolution testing system was used based on mimicking the air-liquid interface at the respiratory epithelium interface using a cell-based in vitro method. A modified next generation impactor that incorporated cell culture plates onto collection stages (cNGI) was used to uniformly deposit materials onto the cell cultures. Dissolution and permeation of the drug through the epithelial cell monolayer was measured.
Epithelial cell monolayers grown at the air-liquid interface in Snapwell™ (Corning Costar, Mass., USA) permeable insert were integrated into the cNGI. […] The transepithelial electrical resistance (TEER) was measured using an EVOM2 chopstick electrode connected to an EVOM2 Epithelial Voltohmmeter (World Precision Instruments, Hitchin, United Kingdom) and monolayers with a TEER above 450Ω.cm^2 were deemed confluent. […]
Post-dosing of the dose on to the Snapwells from stage 4, the Snapwells were transferred to 6-well plates, which contained 2 mL of PBS pH 7.4+2.0% SDS maintained at 37° C. Basolateral samples were taken at different time points and drug content was measured on an Agilent (Santa Clara, Calif., USA) 1260 Infinity series HPLC. Total dose delivered to the cells was measured from the total amount of drug dissolved over the time-course and from lysing cells post experimentation. […]

In the case of `CCC(C)n1ncn(-c2ccc(N3CCN(c4ccc(OCC5COC(Cn6cncn6)(c6ccc(Cl)cc6Cl)O5)cc4)CC3)cc2)c1=O` (centres unmarked) [Pure ITZ, Itraconazole], the “dissolution and permeability kinetics / rate of diffusion (in words)” value is “slower dissolution and permeability kinetics than the other formulations”. The “Rate of Diffusion” value (human, pH 7.4) worked out at 1.81 cm/s.
